From US20240301409A1, “Chemically Modified Small Activating RNA” (RACTIGEN THERAPEUTICS, priority 2021, published 2024)

System: T24 cells
Assay: Cellular proliferation assay (CCK8) in T24 cells, alone and combined with Mitomycin C or valrubicin
Type: cell-based, human
How it was run: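 Cells transfected with saRNA RAG1-40-31 (0.1–50 nM) for 24 h, then Mitomycin C or valrubicin (1–10000 nM) added in paired concentrations; single-agent saRNA at 10 nM for 72 h. Viability by CCK8 absorbance at 450 nm after 1 h at 37 °C, as % of blank transfection control.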

Substance: RAG1-40-31: saRNA duplex: sense fCfCAACUCAUUCUCCAAG*U*C (SEQ ID NO 16); antisense U*A*fCfUfUGGAGAAfUGAGfUfUGG*fC*A (SEQ ID NO 12) (sense CCAACUCAUUCUCCAAGUC; antisense UACUUGGAGAAUGAGUUGGCA; 2'-F and phosphorothioate modifications; modified_base (1)..(2) (1,2)=2′-fluoro; modified_base (17)..(19) (17,18,19)=phosphorothioate (PS) backbone modification; modified_base (2)..(21) (2,3,19,20,21)=phosphorothioate (PS) backbone modification; modified_base (3)..(20) (3,4,5,12,16,17,20)=2′-fluoro)
- Relative proliferation proportion of T24 cells (RAG1-40-31 50 nM + valrubicin 1000 nm): 10.9%
- Relative proliferation proportion of T24 cells (RAG1-40-31 50 nM + valrubicin 10000 nm): 3.1%
- Relative proliferation proportion of T24 cells (RAG1-40-31 50 nM, Control (no MMC)): 14.7%
- Relative proliferation proportion of T24 cells (RAG1-40-31 50 nM, Control (no valrubicin)): 13.8%
- Combination Index (CI) (T24 cells, RAG1-40-31 0.1 nM + MMC 1 nM): 0.42
- Combination Index (CI) (T24 cells, RAG1-40-31 0.1 nM + MMC 10 nM): 1.59
- Combination Index (CI) (T24 cells, RAG1-40-31 0.1 nM + MMC 100 nM): 0.64
- Combination Index (CI) (T24 cells, RAG1-40-31 0.1 nM + MMC 1000 nM): 0.49
- Combination Index (CI) (T24 cells, RAG1-40-31 0.1 nM + MMC 10000 nM): 1.05
- Combination Index (CI) (T24 cells, RAG1-40-31 0.1 nM + Valrubicin 10000 nM): 0.38
- Combination Index (CI) (T24 cells, RAG1-40-31 0.1 nM + valrubicin 1 nM): 1.9
- Combination Index (CI) (T24 cells, RAG1-40-31 0.1 nM + valrubicin 10 nM): 17.16
- Combination Index (CI) (T24 cells, RAG1-40-31 0.1 nM + valrubicin 100 nM): 11.04
- Combination Index (CI) (T24 cells, RAG1-40-31 0.1 nM + valrubicin 1000 nM): 1.48
- Combination Index (CI) (T24 cells, RAG1-40-31 0.5 nM + MMC 1 nM): 0.97
- Combination Index (CI) (T24 cells, RAG1-40-31 0.5 nM + MMC 10 nM): 1.40
- Combination Index (CI) (T24 cells, RAG1-40-31 0.5 nM + MMC 100 nM): 0.67
- Combination Index (CI) (T24 cells, RAG1-40-31 0.5 nM + MMC 1000 nM): 0.46
- Combination Index (CI) (T24 cells, RAG1-40-31 0.5 nM + MMC 10000 nM): 1.06
- Combination Index (CI) (T24 cells, RAG1-40-31 0.5 nM + Valrubicin 10000 nM): 0.4
- Combination Index (CI) (T24 cells, RAG1-40-31 0.5 nM + valrubicin 1 nM): 2.71
- Combination Index (CI) (T24 cells, RAG1-40-31 0.5 nM + valrubicin 10 nM): 6.02
- Combination Index (CI) (T24 cells, RAG1-40-31 0.5 nM + valrubicin 100 nM): 8.68
- Combination Index (CI) (T24 cells, RAG1-40-31 0.5 nM + valrubicin 1000 nM): 0.92
- Combination Index (CI) (T24 cells, RAG1-40-31 1 nM + MMC 1 nM): 0.96
- Combination Index (CI) (T24 cells, RAG1-40-31 1 nM + MMC 10 nM): 0.88
- Combination Index (CI) (T24 cells, RAG1-40-31 1 nM + MMC 100 nM): 0.69
- Combination Index (CI) (T24 cells, RAG1-40-31 1 nM + MMC 1000 nM): 0.41
- Combination Index (CI) (T24 cells, RAG1-40-31 1 nM + MMC 10000 nM): 0.84
- Combination Index (CI) (T24 cells, RAG1-40-31 1 nM + Valrubicin 10000 nM): 0.33
- Combination Index (CI) (T24 cells, RAG1-40-31 1 nM + valrubicin 1 nM): 1.23
- Combination Index (CI) (T24 cells, RAG1-40-31 1 nM + valrubicin 10 nM): 0.92
- Combination Index (CI) (T24 cells, RAG1-40-31 1 nM + valrubicin 100 nM): 1.02
- Combination Index (CI) (T24 cells, RAG1-40-31 1 nM + valrubicin 1000 nM): 0.93
- Combination Index (CI) (T24 cells, RAG1-40-31 5 nM + MMC 1 nM): 0.61
- Combination Index (CI) (T24 cells, RAG1-40-31 5 nM + MMC 10 nM): 0.60
- Combination Index (CI) (T24 cells, RAG1-40-31 5 nM + MMC 100 nM): 0.45
- Combination Index (CI) (T24 cells, RAG1-40-31 5 nM + MMC 1000 nM): 0.24
- Combination Index (CI) (T24 cells, RAG1-40-31 5 nM + MMC 10000 nM): 0.46
- Combination Index (CI) (T24 cells, RAG1-40-31 5 nM + Valrubicin 10000 nM): 0.12
- Combination Index (CI) (T24 cells, RAG1-40-31 5 nM + valrubicin 1 nM): 0.73
- Combination Index (CI) (T24 cells, RAG1-40-31 5 nM + valrubicin 10 nM): 0.59
- Combination Index (CI) (T24 cells, RAG1-40-31 5 nM + valrubicin 100 nM): 0.99
- Combination Index (CI) (T24 cells, RAG1-40-31 5 nM + valrubicin 1000 nM): 0.47
- Combination Index (CI) (T24 cells, RAG1-40-31 10 nM + MMC 1 nM): 0.52
- Combination Index (CI) (T24 cells, RAG1-40-31 10 nM + MMC 10 nM): 0.77
- Combination Index (CI) (T24 cells, RAG1-40-31 10 nM + MMC 100 nM): 0.47
- Combination Index (CI) (T24 cells, RAG1-40-31 10 nM + MMC 1000 nM): 0.19
- Combination Index (CI) (T24 cells, RAG1-40-31 10 nM + MMC 10000 nM): 0.30
- Combination Index (CI) (T24 cells, RAG1-40-31 10 nM + Valrubicin 10000 nM): 0.09
- Combination Index (CI) (T24 cells, RAG1-40-31 10 nM + valrubicin 1 nM): 0.82
- Combination Index (CI) (T24 cells, RAG1-40-31 10 nM + valrubicin 10 nM): 0.62
- Combination Index (CI) (T24 cells, RAG1-40-31 10 nM + valrubicin 100 nM): 0.83
- Combination Index (CI) (T24 cells, RAG1-40-31 10 nM + valrubicin 1000 nM): 0.63
- Combination Index (CI) (T24 cells, RAG1-40-31 25 nM + MMC 1 nM): 0.92
- Combination Index (CI) (T24 cells, RAG1-40-31 25 nM + MMC 10 nM): 1.38
- Combination Index (CI) (T24 cells, RAG1-40-31 25 nM + MMC 100 nM): 0.73
- Combination Index (CI) (T24 cells, RAG1-40-31 25 nM + MMC 1000 nM): 0.28
- Combination Index (CI) (T24 cells, RAG1-40-31 25 nM + MMC 10000 nM): 0.36
- Combination Index (CI) (T24 cells, RAG1-40-31 25 nM + Valrubicin 10000 nM): 0.1
- Combination Index (CI) (T24 cells, RAG1-40-31 25 nM + valrubicin 1 nM): 0.97
- Combination Index (CI) (T24 cells, RAG1-40-31 25 nM + valrubicin 10 nM): 1.25
- Combination Index (CI) (T24 cells, RAG1-40-31 25 nM + valrubicin 100 nM): 1.25
- Combination Index (CI) (T24 cells, RAG1-40-31 25 nM + valrubicin 1000 nM): 0.67
- relative proliferation proportions of cells (T24 cells, RAG1-40-31 25 nM and 50 nM + Mitomycin C 1, 10, 100, 1000 and 10000 nM): lower than 21%
- relative proliferation proportion of cells (T24 cells, RAG1-40-31 25 nM and 50 nM + valrubicin 1, 10, 100, 1000 and 10000 nM): lower than 21%
- Combination Index (CI) (T24 cells, RAG1-40-31 50 nM + MMC 1 nM): 2.59
- Combination Index (CI) (T24 cells, RAG1-40-31 50 nM + MMC 10 nM): 2.60
- Combination Index (CI) (T24 cells, RAG1-40-31 50 nM + MMC 100 nM): 1.31
- Combination Index (CI) (T24 cells, RAG1-40-31 50 nM + MMC 1000 nM): 0.50
- Combination Index (CI) (T24 cells, RAG1-40-31 50 nM + MMC 10000 nM): 0.47
- Combination Index (CI) (T24 cells, RAG1-40-31 50 nM + Valrubicin 10000 nM): 0.19
- Combination Index (CI) (T24 cells, RAG1-40-31 50 nM + valrubicin 1 nM): 2.12
- Combination Index (CI) (T24 cells, RAG1-40-31 50 nM + valrubicin 10 nM): 2.3
- Combination Index (CI) (T24 cells, RAG1-40-31 50 nM + valrubicin 100 nM): 2.3
- Combination Index (CI) (T24 cells, RAG1-40-31 50 nM + valrubicin 1000 nM): 1.04
- relative proliferation proportions of cells (T24 cells, RAG1-40-31 0.1-50 nM + Mitomycin C 1000 and 10000 nM): lower than 18%
- relative proliferation proportions of cells (T24 cells, RAG1-40-31 0.1-50 nM + valrubicin 1000 nM and 10000 nM): lower than 60%
- relative proliferation proportions of cells (T24 cells, RAG1-40-31 5-50 nM + Mitomycin C 1, 10, 100, 1000 and 10000 nM): lower than 40%
- relative proliferation proportions of cells (T24 cells, RAG1-40-31 5-50 nM + valrubicin 1, 10, 100, 1000 and 10000 nM): lower than 40%
- effect of combined use with Mitomycin C or valrubicin, in words (T24 tumor cells): synergistic effect
